Data from patent publication US9012398B2, “Acylated exendin-4 compounds” (priority 2006, dated 2015).
Read-outs that look alike come from different tables or passages of the source. Starred links: 1 amine or outer side, 2 acyl side, 3 side chain; linkers in the order of their positions; H or OH if unused. Residues, ends and D or L forms follow the SMILES beside them. Groups on a side chain read outwards from the residue. *: point of attachment. γGlu = O=C(O)[C@H](CCC(=O)[*:2])N[*:1]; Stearoyl = CCCCCCCCCCCCCCCCCC(=O)*; Palmitoyl = CCCCCCCCCCCCCCCC(=O)*; AEEA = NCCOCCOCC(=O)O

Target: T1, human GLP-1 receptor (Homo sapiens, UniProt P43220)
T1 construct: expressed in transfected cells; host or cells: BHK cells, clone BHK-467-12A; plasma membrane preparation
Assay: Functional receptor assay: cAMP formation in plasma membranes of BHK cells expressing the cloned human GLP-1 receptor (GLP1cAMPma)
Assay type: biochemical
Method: The term “insulinotropic agent” as used herein means a compound which is an agonist of the human GLP-1 receptor, i.e. a compound which stimulates the formation of cAMP in a suitable medium containing the human GLP-1 receptor (one such medium disclosed below). The potency of an insulinotropic agent is determined by calculating the EC50 value from the dose-response curve as described below.
The cells were washed twice in phosphate buffered saline and harvested with Versene. Plasma membranes were prepared from the cells by homogenisation with an Ultraturrax in buffer 1 (20 mM HEPES-Na, 10 mM EDTA, pH 7.4). The homogenate was centrifuged at 48,000×g for 15 min at 4° C. The pellet was suspended by homogenization in buffer 2 (20 mM HEPES-Na, 0.1 mM EDTA, pH 7.4), then centrifuged at 48,000×g for 15 min at 4° C. The washing procedure was repeated one more time. The final pellet was suspended in buffer 2 and used immediately for assays or stored at −80° C.
The functional receptor assay was carried out by measuring cyclic AMP (cAMP) as a response to stimulation by the insulinotropic agent. cAMP formed was quantified by the AlphaScreen™ cAMP Kit (Perkin Elmer Life Sciences). Incubations were carried out in half-area 96-well microtiter plates in a total volume of 50 μL buffer 3 (50 mM Tris-HCl, 5 mM HEPES, 10 mM MgCl2, pH 7.4) and with the following additions: 1 mM ATP, 1 μM GTP, 0.5 mM 3-isobutyl-1-methylxanthine (IBMX), 0.01% Tween-20, 0.1% BSA, 6 μg membrane preparation, 15 μg/mL acceptor beads, 20 μg/mL donor beads preincubated with 6 nM biotinyl-cAMP. […] GTP was freshly prepared for each experiment. The plate was incubated in the dark with slow agitation for three hours at room temperature followed by counting in the Fusion™ instrument (Perkin Elmer Life Sciences). Concentration-response curves were plotted for the individual compounds and EC50 values estimated using a four-parameter logistic model with Prism v. 4.0 (GraphPad, Carlsbad, Calif.).

[1] = cAMP, membranes with human GLP-1 receptor, mean value, read-out: GLP1cAMPma (3693) [EC50 (nM)] Mean Value

T1 sequence (P43220 24-463): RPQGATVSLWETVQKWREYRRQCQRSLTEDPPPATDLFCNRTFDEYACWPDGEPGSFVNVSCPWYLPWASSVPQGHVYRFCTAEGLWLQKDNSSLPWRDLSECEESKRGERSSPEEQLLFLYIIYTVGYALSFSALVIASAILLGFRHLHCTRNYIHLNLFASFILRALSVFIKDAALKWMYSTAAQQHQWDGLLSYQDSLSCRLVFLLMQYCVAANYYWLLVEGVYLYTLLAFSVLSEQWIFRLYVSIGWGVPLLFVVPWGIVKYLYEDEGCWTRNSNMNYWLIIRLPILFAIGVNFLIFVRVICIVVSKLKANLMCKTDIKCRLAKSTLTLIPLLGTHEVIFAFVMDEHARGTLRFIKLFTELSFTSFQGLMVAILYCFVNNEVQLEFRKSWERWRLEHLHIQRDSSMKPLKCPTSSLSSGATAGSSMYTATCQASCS

SMILES	EC50 [1] [nM]	EC50 [nM]
CCCCCCCCCCCCCCCCCC(=O)N[C@@H](CCC(=O)NCCOCCOCC(=O)NCCOCCOCC(=O)NCCCC[C@H](NC(=O)[C@@H](NC(=O)[C@H](C)NC(=O)[C@H](CCC(=O)O)NC(=O)[C@H](CCC(=O)O)NC(=O)[C@H](CCC(=O)O)NC(=O)[C@H](CC(C)C)NC(=O)[C@H](CCC(N)=O)NC(=O)[C@H](CCCNC(=N)N)NC(=O)[C@H](CO)NC(=O)[C@H](CC(C)C)NC(=O)[C@H](CC(=O)O)NC(=O)[C@H](CO)NC(=O)[C@@H](NC(=O)[C@H](Cc1ccccc1)NC(=O)[C@@H](NC(=O)CNC(=O)[C@H](CCC(=O)O)NC(=O)CNC(=O)[C@@H](N)Cc1c[nH]cn1)[C@@H](C)O)[C@@H](C)O)C(C)C)C(=O)N[C@@H](CC(C)C)C(=O)N[C@@H](Cc1ccccc1)C(=O)N[C@H](C(=O)N[C@@H](CCC(=O)O)C(=O)N[C@@H](Cc1c[nH]c2ccccc12)C(=O)N[C@@H](CC(C)C)C(=O)N[C@@H](CCCNC(=N)N)C(=O)N[C@@H](CCC(N)=O)C(=O)NCC(=O)NCC(=O)N1CCC[C@H]1C(=O)N[C@@H](CO)C(=O)N[C@@H](CO)C(=O)NCC(=O)N[C@@H](C)C(=O)N1CCC[C@H]1C(=O)N1CCC[C@H]1C(=O)N1CCC[C@H]1C(=O)N[C@@H](CO)C(N)=O)[C@@H](C)CC)C(=O)O [Example 15] (H-HGEGTFTSDLSRQLEEEAVK([AEEA-AEEA-γGlu-Stearoyl])LFIEWLRQGGPSSGAPPPS-NH2)	0.044	–
CCCCCCCCCCCCCCCC(=O)N[C@@H](CCC(=O)NCCOCCOCC(=O)NCCOCCOCC(=O)NCCCC[C@H](NC(=O)[C@H](CO)NC(=O)[C@H](CO)NC(=O)[C@@H]1CCCN1C(=O)CNC(=O)CNC(=O)[C@H](CC(N)=O)NC(=O)[C@H](CCCNC(=N)N)NC(=O)[C@H](CC(C)C)NC(=O)[C@H](Cc1c[nH]c2ccccc12)NC(=O)[C@H](CCC(=O)O)NC(=O)[C@@H](NC(=O)[C@H](Cc1ccccc1)NC(=O)[C@H](CC(C)C)NC(=O)[C@H](CCCNC(=N)N)NC(=O)[C@@H](NC(=O)[C@H](C)NC(=O)[C@H](CCC(=O)O)NC(=O)[C@H](CCC(=O)O)NC(=O)[C@H](CCC(=O)O)NC(=O)[C@H](CC(C)C)NC(=O)[C@H](CCC(N)=O)NC(=O)[C@H](CCCNC(=N)N)NC(=O)[C@H](CO)NC(=O)[C@H](CC(C)C)NC(=O)[C@H](CC(=O)O)NC(=O)[C@H](CO)NC(=O)[C@@H](NC(=O)[C@H](Cc1ccccc1)NC(=O)[C@@H](NC(=O)CNC(=O)[C@H](CCC(=O)O)NC(=O)CNC(=O)[C@@H](N)Cc1c[nH]cn1)[C@@H](C)O)[C@@H](C)O)C(C)C)[C@@H](C)CC)C(=O)N[C@@H](C)C(=O)N1CCC[C@H]1C(=O)N1CCC[C@H]1C(=O)N1CCC[C@H]1C(=O)N[C@@H](CO)C(N)=O)C(=O)O [Example 6, N-ε^34-[2-(2-[2-(2-[2-(2-[4-hexadecanoylamino-4(S)-carboxybutyrylamino]ethoxy)ethoxy]acetylamino)ethoxy]ethoxy)acetyl] [Arg^12,27,Leu^14,Lys^34]Exendin-4(1-39)amide] (H-HGEGTFTSDLSRQLEEEAVRLFIEWLRNGGPSSK([AEEA-AEEA-γGlu-Palmitoyl])APPPS-NH2; N-terminus assumed)	0.018	–
CCCCCCCCCCCCCCCC(=O)N[C@@H](CCC(=O)NCCOCCOCC(=O)NCCOCCOCC(=O)NCCCC[C@H](NC(=O)[C@@H](NC(=O)[C@H](C)NC(=O)[C@H](CCC(=O)O)NC(=O)[C@H](CCC(=O)O)NC(=O)[C@H](CCC(=O)O)NC(=O)[C@H](CC(C)C)NC(=O)[C@H](CCC(N)=O)NC(=O)[C@H](CCC(N)=O)NC(=O)[C@H](CO)NC(=O)[C@H](CC(C)C)NC(=O)[C@H](CC(=O)O)NC(=O)[C@H](CO)NC(=O)[C@@H](NC(=O)[C@H](Cc1ccccc1)NC(=O)[C@@H](NC(=O)CNC(=O)[C@H](CCC(=O)O)NC(=O)CNC(=O)[C@@H](N)Cc1c[nH]cn1)[C@@H](C)O)[C@@H](C)O)C(C)C)C(=O)N[C@@H](CC(C)C)C(=O)N[C@@H](Cc1ccccc1)C(=O)N[C@H](C(=O)N[C@@H](CCC(=O)O)C(=O)N[C@@H](Cc1c[nH]c2ccccc12)C(=O)N[C@@H](CC(C)C)C(=O)N[C@@H](CCCCN)C(=O)N[C@@H](CCC(N)=O)C(=O)NCC(=O)NCC(=O)N1CCC[C@H]1C(=O)N[C@@H](CO)C(=O)N[C@@H](CO)C(=O)NCC(=O)N[C@@H](C)C(=O)N1CCC[C@H]1C(=O)N1CCC[C@H]1C(=O)N1CCC[C@H]1C(=O)N[C@@H](CO)C(N)=O)[C@@H](C)CC)C(=O)O [Example 48] (H-HGEGTFTSDLSQQLEEEAVK([AEEA-AEEA-γGlu-Palmitoyl])LFIEWLKQGGPSSGAPPPS-NH2; N-terminus assumed)	–	0.021
CCCCCCCCCCCCCCCCCC(=O)NCCOCCOCC(=O)NCCOCCOCC(=O)NCCOCCOCC(=O)NCCCC[C@H](NC(=O)[C@@H]1CCCN1C(=O)CNC(=O)CNC(=O)[C@H](CCCNC(=N)N)NC(=O)[C@@H](NC(=O)[C@H](CC(C)C)NC(=O)[C@H](Cc1c[nH]c2ccccc12)NC(=O)[C@H](CCC(=O)O)NC(=O)[C@@H](NC(=O)[C@H](Cc1ccccc1)NC(=O)[C@H](CC(C)C)NC(=O)[C@H](CCCNC(=N)N)NC(=O)[C@@H](NC(=O)[C@H](C)NC(=O)[C@H](CCC(=O)O)NC(=O)[C@H](CCC(=O)O)NC(=O)[C@H](CCC(=O)O)NC(=O)[C@H](CC(C)C)NC(=O)[C@H](CCC(N)=O)NC(=O)[C@H](CCCNC(=N)N)NC(=O)[C@H](CO)NC(=O)[C@H](CC(C)C)NC(=O)[C@H](CC(=O)O)NC(=O)[C@H](CO)NC(=O)[C@@H](NC(=O)[C@H](Cc1ccccc1)NC(=O)[C@@H](NC(=O)CNC(=O)[C@H](CCC(=O)O)NC(=O)CNC(=O)[C@@H](N)Cc1c[nH]cn1)[C@@H](C)O)[C@@H](C)O)C(C)C)[C@@H](C)CC)C(C)C)C(=O)N[C@@H](CO)C(=O)NCC(=O)N[C@@H](C)C(=O)N1CCC[C@H]1C(=O)N1CCC[C@H]1C(=O)N1CCC[C@H]1C(=O)N[C@@H](CO)C(N)=O [Example 2] (H-HGEGTFTSDLSRQLEEEAVRLFIEWLVRGGPK([AEEA-AEEA-AEEA-Stearoyl])SGAPPPS-NH2)	–	0.027
CCCCCCCCCCCCCCCC(=O)N[C@@H](CCC(=O)NCCOCCOCC(=O)NCCOCCOCC(=O)NCCCC[C@H](NC(=O)[C@@H](NC(=O)[C@H](C)NC(=O)[C@H](CCC(=O)O)NC(=O)[C@H](CCC(=O)O)NC(=O)[C@H](CCC(=O)O)NC(=O)[C@H](CC(C)C)NC(=O)[C@H](CCC(N)=O)NC(=O)[C@H](CCCNC(=N)N)NC(=O)[C@H](CO)NC(=O)[C@H](CC(C)C)NC(=O)[C@H](CC(=O)O)NC(=O)[C@H](CO)NC(=O)[C@@H](NC(=O)[C@H](Cc1ccccc1)NC(=O)[C@@H](NC(=O)CNC(=O)[C@H](CCC(=O)O)NC(=O)CNC(=O)[C@@H](N)Cc1c[nH]cn1)[C@@H](C)O)[C@@H](C)O)C(C)C)C(=O)N[C@@H](CC(C)C)C(=O)N[C@@H](Cc1ccccc1)C(=O)N[C@H](C(=O)N[C@@H](CCC(=O)O)C(=O)N[C@@H](Cc1c[nH]c2ccccc12)C(=O)N[C@@H](CC(C)C)C(=O)N[C@@H](CCCNC(=N)N)C(=O)N[C@@H](CCCNC(=N)N)C(=O)NCC(=O)NCC(=O)N1CCC[C@H]1C(=O)N[C@@H](CO)C(=O)N[C@@H](CO)C(=O)NCC(=O)N[C@@H](C)C(=O)N1CCC[C@H]1C(=O)N1CCC[C@H]1C(=O)N1CCC[C@H]1C(=O)N[C@@H](CO)C(N)=O)[C@@H](C)CC)C(=O)O [Example 4, N-ε^20-[2-(2-[2-(2-[2-(2-[4-hexadecanoylamino-4(S)-carboxybutyrylamino]ethoxy)ethoxy]acetylamino)ethoxy]ethoxy)acetyl] [Arg^12,27,28,Leu^14,Lys^20]Exendin-4(1-39)amide] (H-HGEGTFTSDLSRQLEEEAVK([AEEA-AEEA-γGlu-Palmitoyl])LFIEWLRRGGPSSGAPPPS-NH2; N-terminus assumed)	0.027	–
